# Like-named read-outs stand apart in the source and are kept apart here.
# What was measured:
# [1] = system: H460 non-small cell lung adenocarcinoma; assay: MTT in vitro cytotoxicity, H460; format: cell-based; conditions: Homo sapiens, NCI-H460, 240 h
# Description: (§1) All were stored in the dark at 4° C. An accurately weighed amount of each compound was dissolved in DMSO and Hank's Balanced Salt Solution (Sigma) according to Table 2 below:
# (§2) Further dilutions were made in complete RPMI1640 cell culture medium (RPMI1640 cell culture medium supplemented with 10% foetal bovine serum, 1 mM L-glutamine, and 2 mM sodium pyruvate (all from Sigma)).
# (§3) H460 non-small cell lung adenocarcinoma, HT-29 colon adenocarcinoma and MCF-7 breast adenocarcinoma (ECACC, Salisbury, Wiltshire) were used for analysis. Cells were cultured in complete RPMI1640 cell culture medium, and maintained as monolayer cultures at 37° C. in a humidified 5% CO2 environment.
# (§4) Tumour cell growth inhibition was assessed using the MTT assay with a standard 96 hour plus an extended 10 day incubation. For the 96 hour assay 1×10^4 cells were inoculated into each well of a 96-well plate and incubated overnight at 37° C. in a humidified atmosphere containing 5% CO2 to give time to adhere to the wells and form a monolayer. For the 10 day incubation, 1×102 (H460 and HT-29) and 1×103 (MCF-7) cells were inoculated. The next day, culture medium was removed from each well and replaced with cell culture media for the untreated control, or media containing compound, and the plates then incubated for a further 96 hours or 10 days. […] After 96 hours or 10 days culture medium was removed and 200 μL of 0.5 mgmL-1 MTT solution (Sigma) in complete medium added to each well. Following a further 4 hours incubation, the solution was removed from each well and 150 μL of DMSO added to solubilise the formazan crystals resulting from MTT conversion. Absorbance values for the resulting solutions were read at 550 nm on a Multiskan Ex microplate reader (Thermo Fisher, Loughborough, UK) and cell survival calculated as the absorbance of treated cells divided by the control. Results are expressed in terms of IC50 values (i.e. concentration of compound required to kill 50% of cells), which were determined manually in Microsoft Excel from plots of concentration versus percentage cell survival, and all experiments were performed in triplicate.
# [2] = system: HT-29 colon adenocarcinoma; assay: MTT in vitro cytotoxicity, HT-29; format: cell-based; conditions: Homo sapiens, HT-29, 240 h
# Description: as §1, §2, §3, §4
# [3] = system: MCF-7 breast adenocarcinoma; assay: MTT in vitro cytotoxicity, MCF-7; format: cell-based, human; conditions: Homo sapiens, MCF7, 240 h
# Description: as §1, §2, §3, §4
# [4] = system: A2780 [ovarian]; assay: Combination with cisplatin, A2780; format: cell-based
# [5] = system: A2780/cis [cisplatin ovarian resistant line]; assay: Combination with cisplatin, A2780/cis; format: cell-based
# [6] = system: M 14 [melanoma]; assay: Combination with cisplatin, M14; format: cell-based
# [7] = system: MCF7 [Breast]; assay: Combination with cisplatin, MCF-7; format: cell-based, human
# [8] = system: human mitochondria isolated from HEK293 cells; assay: ROS production in isolated mitochondria (DCFDA); format: biochemical
# Description: The ability of test compounds to impact ROS production in isolated mitochondria after 120 mins exposure was assessed.
# Mitochondria were isolated from harvested human embryonic kidney (HEK293) cells (20×10^6) using a commercial kit (Thermo Scientific) before re-suspension in PBS to a final volume of 800 μL. […] Independent experiments (each assessing the impact of all four compounds along with a positive [AAPH; 5.0 mM] and vehicle control) were repeated three times.
# [9] = Redox potential study, square wave voltammetry; format: physicochemical; conditions: 0.1 mol dm-3 LiNTf2, 20° C., first scan
# Description: BioAnalytical Systems CV50W potentiostat (from BAS Inc., USA)
# Square wave voltammetry (4 mV step, 25 mV pulse, 10 Hz SW frequency)
# 3 mm diameter glassy carbon working electrode (from BAS)
# 3 mm diameter glassy carbon counter electrode (from BAS)
# Saturated calomel reference electrode (SCE, from Sycopel Scientific Ltd., UK)
# 0.1 mol dm-3 lithium bis(trifluoromethanesulphonyl)imide ((LiNTf2)CAS 90076-65-6, from 3M)
# Voltammograms were recorded from 0.5 V to −1.2 V in deoxygenated solutions of the Compounds.
# [10] = compound 1 μM + cisplatin 10 μM
# [11] = compound 3 μM + cisplatin 10 μM
# [12] = compound 10 μM + cisplatin 1 μM
# [13] = compound 10 μM + cisplatin 3 μM
# [14] = compound 10 μM + cisplatin 10 μM
compound,measurement,setting,value
"O=S(=O)([O-])C(F)(F)F.O=S(=O)([O-])C(F)(F)F.c1cc[n+]2c(c1)-c1cccc[n+]1CC2 [Compound A, 6,7-dihydrodipyrido[1,2-a:2′,1′-c]pyrazine-5,8-diium bistrifluoromethanesulfonate]",IC50,[1]; read-out: IC50 Mean,5.4 µM
same,IC50,[1]; read-out: IC50 Run 1,5.2 µM
same,IC50,[1]; read-out: IC50 Run 2,5.5 µM
same,IC50,[1]; read-out: IC50 Run 3,5.4 µM
same,IC50,[2]; read-out: IC50 Mean,1.5 µM
same,IC50,[2]; read-out: IC50 Run 1,1.8 µM
same,IC50,[2]; read-out: IC50 Run 2,0.9 µM
same,IC50,[2]; read-out: IC50 Run 3,1.7 µM
same,IC50,[3]; read-out: IC50 Mean,5 µM
same,IC50,[3]; read-out: IC50 Run 1,2.7 µM
same,IC50,[3]; read-out: IC50 Run 2,5.4 µM
same,IC50,[3]; read-out: IC50 Run 3,6.8 µM
same,% cell survival,[4]; compound 1 μM + cisplatin 1 μM,58%
same,% cell survival,[4]; compound 1 μM + cisplatin 3 μM,24.5%
same,% cell survival,[4]; [10],5.2%
same,% cell survival,"[4]; compound 1 μM, cisplatin 0 μM",90.5%
same,% cell survival,[4]; compound 3 μM + cisplatin 1 μM,54.4%
same,% cell survival,[4]; compound 3 μM + cisplatin 3 μM,22.3%
same,% cell survival,[4]; [11],5.3%
same,% cell survival,"[4]; compound 3 μM, cisplatin 0 μM",86.3%
same,% cell survival,[4]; [12],40.6%
same,% cell survival,[4]; [13],19%
same,% cell survival,[4]; [14],5.2%
same,% cell survival,"[4]; compound 10 μM, cisplatin 0 μM",66%
same,% cell survival,[5]; [10],51.4%
same,% cell survival,[5]; compound 1 μM + cisplatin 30 μM,10%
same,% cell survival,[5]; compound 1 μM + cisplatin 100 μM,−1.6%
same,% cell survival,"[5]; compound 1 μM, cisplatin 0 μM",77.8%
same,% cell survival,[5]; [11],31.9%
same,% cell survival,[5]; compound 3 μM + cisplatin 30 μM,10.2%
same,% cell survival,[5]; compound 3 μM + cisplatin 100 μM,1.9%
same,% cell survival,"[5]; compound 3 μM, cisplatin 0 μM",48.7%
same,% cell survival,[5]; [14],16.6%
same,% cell survival,[5]; compound 10 μM + cisplatin 30 μM,6%
same,% cell survival,[5]; compound 10 μM + cisplatin 100 μM,1.8%
same,% cell survival,"[5]; compound 10 μM, cisplatin 0 μM",29.4%
same,% cell survival,[6]; compound 1 μM + cisplatin 1 μM,83.1%
same,% cell survival,[6]; compound 1 μM + cisplatin 3 μM,71.3%
same,% cell survival,[6]; [10],57.9%
same,% cell survival,"[6]; compound 1 μM, cisplatin 0 μM",87%
same,% cell survival,[6]; compound 3 μM + cisplatin 1 μM,75.8%
same,% cell survival,[6]; compound 3 μM + cisplatin 3 μM,68%
same,% cell survival,[6]; [11],55.4%
same,% cell survival,"[6]; compound 3 μM, cisplatin 0 μM",80%
same,% cell survival,[6]; [12],49%
same,% cell survival,[6]; [13],44.4%
same,% cell survival,[6]; [14],36.4%
same,% cell survival,"[6]; compound 10 μM, cisplatin 0 μM",56.5%
same,% cell survival,[7]; compound 1 μM + cisplatin 0.1 μM,96.4%
same,% cell survival,[7]; compound 1 μM + cisplatin 0.3 μM,69.4%
same,% cell survival,[7]; compound 1 μM + cisplatin 1 μM,62%
same,% cell survival,"[7]; compound 1 μM, cisplatin 0 μM",109%
same,% cell survival,[7]; compound 3 μM + cisplatin 0.1 μM,80.9%
same,% cell survival,[7]; compound 3 μM + cisplatin 0.3 μM,64.8%
same,% cell survival,[7]; compound 3 μM + cisplatin 1 μM,66.2%
same,% cell survival,"[7]; compound 3 μM, cisplatin 0 μM",95.1%
same,% cell survival,[7]; compound 10 μM + cisplatin 0.1 μM,52.8%
same,% cell survival,[7]; compound 10 μM + cisplatin 0.3 μM,39.6%
same,% cell survival,[7]; [12],32.6%
same,% cell survival,"[7]; compound 10 μM, cisplatin 0 μM",52.6%
same,ROS production relative to vehicle treatment,[8],barely above vehicle levels
same,rank order of efficacy (ROS production),[8],F>G>B>A
same,Reduction potential 1,[9],−0.444 V vs. SCE
same,Reduction potential 2,[9],−0.944 V vs. SCE

# — patent US20140066449A1, “DIPYRIDINIUM DERIVATIVES” (SABREPHARM LIMITED, priority 2011, published 2014)
